According to PubChem BioAssay AID2060605 (Molecular Pharmacology Branch, DTP, NCI, 2025):
Values joined by “and” are separate entries in the source; they are usually repeats but may differ in a detail not shown here. Equal entries are not always repeated.

System: 947758-054-R-J2-PDC spheroid growth, percent test/control
Assay: Anticancer human tumor 947758-054-R-J2-PDC patient-derived colon adenocarcinoma cell line growth inhibition [CLK]
Details: spheroids with HUVEC and MSC; for viability, T/C: stronger effect = lower value
How it was run: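 Patient-derived tumor cells grown as complex spheroids with HUVEC endothelial cells and mesenchymal stem cells, treated with drug combinations. Concentrations descend in half-log steps from near clinical Cmax, or from 10 microM if Cmax unknown.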

[1] = curve of first compound, second compound 0.0316 µM
[2] = curve of first compound, second compound 0.1 µM
[3] = curve of first compound, second compound 0.316 µM
[4] = curve of first compound, second compound 1 µM
[5] = curve of first compound, second compound 3.16 µM
[6] = curve of first compound, second compound 10 µM
[7] = second compound 0.0316 µM, first compound 0.000949 µM
[8] = second compound 0.0316 µM, first compound 0.003 µM
[9] = second compound 0.0316 µM, first compound 0.00949 µM
[10] = second compound 0.0316 µM, first compound 0.03 µM
[11] = second compound 0.0316 µM, first compound 0.0949 µM
[12] = second compound 0.0316 µM, first compound 0.3 µM
[13] = second compound 0.1 µM, first compound 0.000949 µM
[14] = second compound 0.1 µM, first compound 0.003 µM
[15] = second compound 0.1 µM, first compound 0.00949 µM
[16] = second compound 0.1 µM, first compound 0.03 µM
[17] = second compound 0.1 µM, first compound 0.0949 µM
[18] = second compound 0.1 µM, first compound 0.3 µM
[19] = second compound 0.316 µM, first compound 0.000949 µM
[20] = second compound 0.316 µM, first compound 0.003 µM
[21] = second compound 0.316 µM, first compound 0.00949 µM
[22] = second compound 0.316 µM, first compound 0.03 µM
[23] = second compound 0.316 µM, first compound 0.0949 µM
[24] = second compound 0.316 µM, first compound 0.3 µM
[25] = second compound 1 µM, first compound 0.000949 µM
[26] = second compound 1 µM, first compound 0.003 µM
[27] = second compound 1 µM, first compound 0.00949 µM
[28] = second compound 1 µM, first compound 0.03 µM
[29] = second compound 1 µM, first compound 0.0949 µM
[30] = second compound 1 µM, first compound 0.3 µM
[31] = second compound 3.16 µM, first compound 0.000949 µM
[32] = second compound 3.16 µM, first compound 0.003 µM
[33] = second compound 3.16 µM, first compound 0.00949 µM
[34] = second compound 3.16 µM, first compound 0.03 µM
[35] = second compound 3.16 µM, first compound 0.0949 µM
[36] = second compound 3.16 µM, first compound 0.3 µM
[37] = second compound 10 µM, first compound 0.000949 µM
[38] = second compound 10 µM, first compound 0.003 µM
[39] = second compound 10 µM, first compound 0.00949 µM
[40] = second compound 10 µM, first compound 0.03 µM
[41] = second compound 10 µM, first compound 0.0949 µM
[42] = second compound 10 µM, first compound 0.3 µM
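Further: spheroids exposed to compounds for one week before readout.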
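Wherever viability, T/C is given: 100% = DMSO vehicle control wells.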

With `CC(C)CC(NC(=O)C(Cc1ccccc1)NC(=O)c1cnccn1)B(O)O` (stereo not drawn) + CN1CCN(c2cc(C(=O)Nc3cc4cc(-c5cnn(C)c5)ccc4cn3)ccn2)CC1 the IC50 [1] was 1.92 nM, the IC50 [2] was 2.41 nM and the IC50 [3] was less than 0.949 nM. The IC50 [4] was less than 0.949 nM, the IC50 [5] was less than 0.949 nM and the IC50 [6] was less than 0.949 nM. The viability, T/C [7] was 121%, the viability, T/C [8] was 5.43% and the viability, T/C [9] was 0.78%. The viability, T/C [10] was 0.27%, the viability, T/C [11] was 0.29% and the viability, T/C [12] was 0.27%. The viability, T/C [13] was 229%, the viability, T/C [14] was 7.59% and the viability, T/C [15] was 0.31%. The viability, T/C [16] was 0.29%, the viability, T/C [17] was 0.32% and the viability, T/C [18] was 0.3%. It also gave a viability, T/C [19] of 1.38%, a viability, T/C [20] of 0.21% and a viability, T/C [21] of 0.22%. It also gave a viability, T/C [22] of 0.22%, a viability, T/C [23] of 0.2% and a viability, T/C [24] of 0.23%. It also gave a viability, T/C [25] of 0.14%, a viability, T/C [26] of 0.15% and a viability, T/C [27] of 0.15%. It also gave a viability, T/C [28] of 0.16%, a viability, T/C [29] of 0.18% and a viability, T/C [30] of 0.15%. It also gave a viability, T/C [31] of 0.21%, a viability, T/C [32] of 0.12% and a viability, T/C [33] of 0.12%. It also gave a viability, T/C [34] of 0.13%, a viability, T/C [35] of 0.21% and a viability, T/C [36] of 2.33%. For the same molecule, the viability, T/C [37] was 0.34%, the viability, T/C [38] was 0.18% and the viability, T/C [39] was 1.25%. The viability, T/C [40] was 0.16%, the viability, T/C [41] was 0.21% and the viability, T/C [42] was 1.68%.
For `Nc1ccccc1NC(=O)c1ccc(CNC(=O)OCc2cccnc2)cc1`, the viability, T/C (compound 0.0316 µM) was 102% and 80.7%, the viability, T/C (compound 0.1 µM) was 105% and 97.2% and the viability, T/C (compound 0.316 µM) was 115% and 90.4%. For the same molecule, the viability, T/C (compound 1 µM) was 96% and 121%, the viability, T/C (compound 3.16 µM) was 77.7% and 55.5% and the viability, T/C (compound 10 µM) was 13.9% and 11.4%. The IC50 (curve of compound) was 5180 nM and 3660 nM.
In the case of `Nc1ccn(C2OC(CO)C(O)C2(F)F)c(=O)n1` (stereo not drawn) + CNC(=O)c1ccc(Nc2nc(OC3CCCC3)c3c(-c4ccc5nc(C)oc5c4)c[nH]c3n2)c(OC)c1, the IC50 [1] is reported as less than 31.6 nM, the IC50 [2] is reported as less than 31.6 nM and the IC50 [3] is reported as less than 31.6 nM. It also gave an IC50 [4] of less than 31.6 nM, an IC50 [5] of less than 31.6 nM and an IC50 [6] of less than 31.6 nM. For the same molecule, the viability, T/C (second compound 0.0316 µM, first compound 0.0316 µM) was 21.3%, the viability, T/C (second compound 0.0316 µM, first compound 0.1 µM) was 9.39% and the viability, T/C (second compound 0.0316 µM, first compound 0.316 µM) was 10.4%. The viability, T/C (second compound 0.0316 µM, first compound 1 µM) was 12.7%, the viability, T/C (second compound 0.0316 µM, first compound 3.16 µM) was 10.1% and the viability, T/C (second compound 0.0316 µM, first compound 10 µM) was 7.91%. It also gave a viability, T/C (second compound 0.1 µM, first compound 0.0316 µM) of 25.7%, a viability, T/C (second compound 0.1 µM, first compound 0.1 µM) of 7.76% and a viability, T/C (second compound 0.1 µM, first compound 0.316 µM) of 9.74%. The viability, T/C (second compound 0.1 µM, first compound 1 µM) was 9.84%, the viability, T/C (second compound 0.1 µM, first compound 3.16 µM) was 9.52% and the viability, T/C (second compound 0.1 µM, first compound 10 µM) was 7.25%. The viability, T/C (second compound 0.316 µM, first compound 0.0316 µM) was 25.4%, the viability, T/C (second compound 0.316 µM, first compound 0.1 µM) was 8.69% and the viability, T/C (second compound 0.316 µM, first compound 0.316 µM) was 7.46%. For the same molecule, the viability, T/C (second compound 0.316 µM, first compound 1 µM) was 11.1%, the viability, T/C (second compound 0.316 µM, first compound 3.16 µM) was 8.56% and the viability, T/C (second compound 0.316 µM, first compound 10 µM) was 6.75%. The viability, T/C (second compound 1 µM, first compound 0.0316 µM) was 29.1%, the viability, T/C (second compound 1 µM, first compound 0.1 µM) was 8.29% and the viability, T/C (second compound 1 µM, first compound 0.316 µM) was 5.33%. The viability, T/C (second compound 1 µM, first compound 1 µM) was 7.16%, the viability, T/C (second compound 1 µM, first compound 3.16 µM) was 6.13% and the viability, T/C (second compound 1 µM, first compound 10 µM) was 8.82%. The viability, T/C (second compound 3.16 µM, first compound 0.0316 µM) was 19.2%, the viability, T/C (second compound 3.16 µM, first compound 0.1 µM) was 6.89% and the viability, T/C (second compound 3.16 µM, first compound 0.316 µM) was 6.64%. For the same molecule, the viability, T/C (second compound 3.16 µM, first compound 1 µM) was 7.3%, the viability, T/C (second compound 3.16 µM, first compound 3.16 µM) was 6.33% and the viability, T/C (second compound 3.16 µM, first compound 10 µM) was 4.72%. For the same molecule, the viability, T/C (second compound 10 µM, first compound 0.0316 µM) was 18.2%, the viability, T/C (second compound 10 µM, first compound 0.1 µM) was 9.83% and the viability, T/C (second compound 10 µM, first compound 0.316 µM) was 3.87%. The viability, T/C (second compound 10 µM, first compound 1 µM) was 5.96%, the viability, T/C (second compound 10 µM, first compound 3.16 µM) was 4.8% and the viability, T/C (second compound 10 µM, first compound 10 µM) was 3.11%.
In the case of `C=CC(=O)Nc1cc(Nc2nccc(-c3cn(C)c4ccccc34)n2)c(OC)cc1N(C)CCN(C)C` + CN1CCN(c2cc(C(=O)Nc3cc4cc(-c5cnn(C)c5)ccc4cn3)ccn2)CC1, the IC50 [1] is reported as greater than 300 nM, the IC50 [2] is reported as greater than 300 nM and the IC50 [3] is reported as less than 0.949 nM. It also gave an IC50 [4] of less than 0.949 nM, an IC50 [5] of less than 0.949 nM and an IC50 [6] of less than 0.949 nM. It also gave a viability, T/C [7] of 102%, a viability, T/C [8] of 111% and a viability, T/C [9] of 100%. It also gave a viability, T/C [10] of 81.4%, a viability, T/C [11] of 116% and a viability, T/C [12] of 137%. The viability, T/C [13] was 157%, the viability, T/C [14] was 163% and the viability, T/C [15] was 152%. It also gave a viability, T/C [16] of 179%, a viability, T/C [17] of 120% and a viability, T/C [18] of 106%. It also gave a viability, T/C [19] of 4.91%, a viability, T/C [20] of 4.6% and a viability, T/C [21] of 2.55%. It also gave a viability, T/C [22] of 3.23%, a viability, T/C [23] of 2.33% and a viability, T/C [24] of 3.21%. It also gave a viability, T/C [25] of 0.14%, a viability, T/C [26] of 0.99% and a viability, T/C [27] of 0.15%. The viability, T/C [28] was 0.13%, the viability, T/C [29] was 0.11% and the viability, T/C [30] was 0.14%. It also gave a viability, T/C [31] of 0.4%, a viability, T/C [32] of 1.42% and a viability, T/C [33] of 1.1%. It also gave a viability, T/C [34] of 0.23%, a viability, T/C [35] of 2.07% and a viability, T/C [36] of 1.52%. The viability, T/C [37] was 0.82%, the viability, T/C [38] was 0.35% and the viability, T/C [39] was 1%. For the same molecule, the viability, T/C [40] was 1.25%, the viability, T/C [41] was 0.32% and the viability, T/C [42] was 0.26%.
